From patent publication US20250163104A1, “MACROCYCLIC IMMUNOMODULATORS” (priority 2021, published 2025)
Where a SMILES comes first, the peptide text is derived from it. Bridges are numbered along the chain shown (N, C = ends). [ ]: non-standard residue; d: D form. Trp(βS-Me) = C[C@@H](c1c[nH]c2ccccc12)[C@H](N)C(=O)O; Phe(3-CF3) = N[C@@H](Cc1cccc(C(F)(F)F)c1)C(=O)O; Ala(morpholin-4-yl) = N[C@@H](CN1CCOCC1)C(=O)O; Phe(4-COOH) = N[C@@H](Cc1ccc(C(=O)O)cc1)C(=O)O; Bip = N[C@@H](Cc1ccc(-c2ccccc2)cc1)C(=O)O; Phe(4-Br) = N[C@@H](Cc1ccc(Br)cc1)C(=O)O; 2Thi = N[C@@H](Cc1cccs1)C(=O)O; Cha = N[C@@H](CC1CCCCC1)C(=O)O; Orn = NCCC[C@H](N)C(=O)O; Dab = NCC[C@H](N)C(=O)O

molecular target: T1, human PD-1 / PD-L1-Ig binding on Jurkat cell line over-expressing human PD-1 (Jurkat-PD-1) (Homo sapiens, UniProt Q15116); experiment: Jurkat-PD-1 Cell Binding High-Content Screening Assay (CBA); type: cell-based; settings: Jurkat-PD-1 cells, PE-labeled PD-L1-Ig 20 nM final; read-out: Jurkat HPD1_PDL1 IC50
T1 construct: expressed in transfected cells; host or cells: Jurkat
Summary of the method: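 Cell-bound PE-labeled PD-L1-Ig (20 nM final, 1 h) measured by high-content imaging after fixation and Hoechst 33342 counterstain. Compound was applied first for 2 h at 37° C. to Jurkat cells over-expressing human PD-1 in DMEM with 10% FCS.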

T1 sequence (Q15116 25-288): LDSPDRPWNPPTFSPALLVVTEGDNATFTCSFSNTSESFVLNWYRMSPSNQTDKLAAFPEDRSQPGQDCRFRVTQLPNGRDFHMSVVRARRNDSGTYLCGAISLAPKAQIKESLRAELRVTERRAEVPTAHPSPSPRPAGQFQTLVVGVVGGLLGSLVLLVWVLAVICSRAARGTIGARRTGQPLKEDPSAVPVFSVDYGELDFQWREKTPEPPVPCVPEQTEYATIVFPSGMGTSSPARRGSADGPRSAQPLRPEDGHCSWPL

| SMILES | IC50 [nM] |
| --- | --- |
| CC(C)C[C@H]1NC(=O)[C@H](CCCN)NC(=O)[C@H](Cc2ccc(C(=O)O)cc2)NC(=O)[C@H](Cc2ccc(-c3ccccc3)cc2)NC(=O)[C@H]([C@@H](C)c2c[nH]c3ccccc23)NC(=O)[C@H](Cc2cccc(C(F)(F)F)c2)NC(=O)[C@H](CC(=O)O)NC(=O)[C@H](Cc2ccc(C(=O)O)cc2)NC(=O)[C@H](CN2CCOCC2)NC(=O)CSC[C@@H](C(=O)N[C@@H](CCN)C(N)=O)NC(=O)[C@H](CCC(=O)O)NC(=O)[C@H](C(C)C)NC(=O)[C@H](CC2CCCCC2)NC(=O)[C@H](CCN)NC1=O [Example 2748] ({CH2CO}-[Ala(morpholin-4-yl)][Phe(4-COOH)]D[Phe(3-CF3)][Trp(βS-Me)][Bip][Phe(4-COOH)][Orn][dL][Dab][Cha]VEC[Dab]-NH2; thioether N-14) | 25.2 |
| CC(C)C[C@H]1NC(=O)[C@H](CCCN)NC(=O)[C@H](Cc2ccc(C(=O)O)cc2)NC(=O)[C@H](Cc2ccc(-c3ccccc3)cc2)NC(=O)[C@H](Cc2cccs2)NC(=O)[C@H](Cc2cccc(C(F)(F)F)c2)NC(=O)[C@H](CC(=O)O)NC(=O)[C@H](Cc2ccc(C(=O)O)cc2)NC(=O)[C@H](CN2CCOCC2)NC(=O)CSC[C@@H](C(=O)N[C@@H](CCN)C(N)=O)NC(=O)[C@H](CCC(=O)O)NC(=O)[C@H](C(C)C)NC(=O)[C@H](CC2CCCCC2)NC(=O)[C@H](CCN)NC1=O [Example 2749] ({CH2CO}-[Ala(morpholin-4-yl)][Phe(4-COOH)]D[Phe(3-CF3)][2Thi][Bip][Phe(4-COOH)][Orn][dL][Dab][Cha]VEC[Dab]-NH2; thioether N-14) | 1.9 |
| CC(C)C[C@H]1NC(=O)[C@H](CCCN)NC(=O)[C@H](Cc2ccc(C(=O)O)cc2)NC(=O)[C@H](Cc2ccc(-c3ccccc3)cc2)NC(=O)[C@H](Cc2ccc(Br)cc2)NC(=O)[C@H](Cc2cccc(C(F)(F)F)c2)NC(=O)[C@H](CC(=O)O)NC(=O)[C@H](Cc2ccc(C(=O)O)cc2)NC(=O)[C@H](CN2CCOCC2)NC(=O)CSC[C@@H](C(=O)N[C@@H](CCN)C(N)=O)NC(=O)[C@H](CCC(=O)O)NC(=O)[C@H](C(C)C)NC(=O)[C@H](CC2CCCCC2)NC(=O)[C@H](CCN)NC1=O [Example 2750] ({CH2CO}-[Ala(morpholin-4-yl)][Phe(4-COOH)]D[Phe(3-CF3)][Phe(4-Br)][Bip][Phe(4-COOH)][Orn][dL][Dab][Cha]VEC[Dab]-NH2; thioether N-14) | 200 |
